Assay results published in patent publication US4076814A, “Preventive and curative compositions against mycoplasmosis” (Sankyo Company Limited, priority 1975, dated 1978).
≈ marks a conversion by molar mass, not a printed value. Where a name gives a salt, the structure may show the parent alone. Values belong to the compound of their own block, whether it stands above or below them.

What was measured:
Mycoplasma gallisepticum = assay: Antimicrobial test, conventional agar plate dilution method, Mycoplasma gallisepticum; assay type: cell-based; settings: for MIC: Mycoplasmoides gallisepticum, read-out: Minimum Inhibitory Concentration, Mycoplasma gallisepticum
Excerpt: (§1) ANTIMICROBIAL TEST AGAINST THREE STRAINS OF MYCOPLASMA
(§2) The test was effected by a conventional agar plate dilution method using the indicated strains of mycoplasma. The dithiocarbamic acid derivatives as shown below with Compound Nos. were employed in the test.

Mycoplasma pulmonis = assay: Antimicrobial test, conventional agar plate dilution method, Mycoplasma pulmonis; assay type: cell-based; settings: for MIC: Mycoplasma, read-out: Minimum Inhibitory Concentration, Mycoplasma pulmonis
Excerpt: as §1, §2

Mycoplasma hyorhinis = assay: Antimicrobial test, conventional agar plate dilution method, Mycoplasma hyorhinis; assay type: cell-based; settings: for MIC: Mycoplasma, read-out: Minimum Inhibitory Concentration, Mycoplasma hyorhinis
Excerpt: as §1, §2

[1] = tested on: MRL-4 strain of mycoplasma pulmonis; assay: Curative effect in mice infected with MRL-4 strain of mycoplasma pulmonis by oral administration in feed; assay type: in vivo; settings: 10 days, after one month
Experimental: Each of the dithiocarbamic acid derivatives as indicated below with Compound No. was added to a feed and administered orally to mice infected artificially with MRL-4 strain of mycoplasma pulmonis. The effectiveness of the treatment was evaluated. Six groups, each group consisting of ten female mice which were negative in the test for mycoplasmosis, were used. After MRL-4 strain of mycoplasma pulmonis was cultured in PPLO agar medium, the colonies of the surface of the medium were diluted with a phosphate buffer solution to prepare a solution containing about 10^9 /ml of mycoplasma. 0.1 ml of the microbe-containing solution was injected intravenously to the tail of each mouse. For consecutive 10 days from the next day of the injection, the mice were fed with a powdery feed containing the active compound at respective concentrations of 0.04, 0.02, 0.01 and 0.005%, respectively. During the experiment period, all the procedures were conducted in a vinyl isolater.
After one month from the starting of the experiment, the presence of arthritis was visually investigated and at the same time the presence of pneumonia was also investigated after dissection. Recovery tests of mycoplasma and general bacteria were conducted using the joints and lungs of host subjects as the testing materials.

- MIC (Mycoplasma gallisepticum): 0.012 µg/mL (≈ 0.0547 µM)
- MIC (Mycoplasma pulmonis): 0.012 µg/mL (≈ 0.0547 µM)
- MIC (Mycoplasma hyorhinis): 0.012 µg/mL (≈ 0.0547 µM)
Compound: CCN(CC)C(=S)SCCC(C)=O [compound 79, 2-Acetylethyl diethyldithiocarbamate]
- Attack rate arthritis ([1]; 0.005% in feed): 2/10
- Attack rate pneumonia ([1]; 0.005% in feed): 0/10
- Recovery of mycoplasma joint ([1]; 0.005% in feed): 2/10
- Recovery of mycoplasma lung ([1]; 0.005% in feed): 0/10
- Attack rate arthritis ([1]; 0.01% in feed): 0/10
- Attack rate pneumonia ([1]; 0.01% in feed): 0/10
- Recovery of mycoplasma joint ([1]; 0.01% in feed): 0/10
- Recovery of mycoplasma lung ([1]; 0.01% in feed): 0/10
- Attack rate arthritis ([1]; 0.02% in feed): 0/10
- Attack rate pneumonia ([1]; 0.02% in feed): 0/10
- Recovery of mycoplasma joint ([1]; 0.02% in feed): 0/10
- Recovery of mycoplasma lung ([1]; 0.02% in feed): 0/10
- Attack rate arthritis ([1]; 0.04% in feed): 0/10
- Attack rate pneumonia ([1]; 0.04% in feed): 0/10
- Recovery of mycoplasma joint ([1]; 0.04% in feed): 0/10
- Recovery of mycoplasma lung ([1]; 0.04% in feed): 0/10

- MIC (Mycoplasma gallisepticum): 0.05 µg/mL (≈ 0.216 µM)
- MIC (Mycoplasma pulmonis): 0.05 µg/mL (≈ 0.216 µM)
- MIC (Mycoplasma hyorhinis): 0.025 µg/mL (≈ 0.108 µM)
Compound: CC(=O)CCSC(=S)N1CCCCC1 [compound 88, 2-Acetylethyl 1-piperidinecarbodithioate]
- Attack rate arthritis ([1]; 0.005% in feed): 3/10
- Attack rate pneumonia ([1]; 0.005% in feed): 0/10
- Recovery of mycoplasma joint ([1]; 0.005% in feed): 3/10
- Recovery of mycoplasma lung ([1]; 0.005% in feed): 0/10
- Attack rate arthritis ([1]; 0.01% in feed): 1/10
- Attack rate pneumonia ([1]; 0.01% in feed): 0/10
- Recovery of mycoplasma joint ([1]; 0.01% in feed): 1/10
- Recovery of mycoplasma lung ([1]; 0.01% in feed): 0/10
- Attack rate arthritis ([1]; 0.02% in feed): 0/10
- Attack rate pneumonia ([1]; 0.02% in feed): 0/10
- Recovery of mycoplasma joint ([1]; 0.02% in feed): 0/10
- Recovery of mycoplasma lung ([1]; 0.02% in feed): 0/10
- Attack rate arthritis ([1]; 0.04% in feed): 0/10
- Attack rate pneumonia ([1]; 0.04% in feed): 0/10
- Recovery of mycoplasma joint ([1]; 0.04% in feed): 0/10
- Recovery of mycoplasma lung ([1]; 0.04% in feed): 0/10

- MIC (Mycoplasma gallisepticum): 0.05 µg/mL (≈ 0.165 µM)
- MIC (Mycoplasma pulmonis): 0.1 µg/mL (≈ 0.33 µM)
- MIC (Mycoplasma hyorhinis): 0.05 µg/mL (≈ 0.165 µM)
Compound: CCN(CC)C(=S)SCc1oc(CO)cc(=O)c1O [compound 255, 5-Hydroxy-2-hydroxymethyl-4-oxo-4H-pyran-6-ylmethyl diethyldithiocarbamate]

- MIC (Mycoplasma gallisepticum): 0.2 µg/mL (≈ 0.63 µM)
- MIC (Mycoplasma pulmonis): 0.78 µg/mL (≈ 2.46 µM)
- MIC (Mycoplasma hyorhinis): 0.78 µg/mL (≈ 2.46 µM)
Compound: O=c1cc(CO)oc(CSC(=S)N2CCOCC2)c1O [compound 262, 5-Hydroxy-2-hydroxymethyl-4-oxo-4H-pyran-6-ylmethyl-4-morpholinecarbodithioate]

- MIC (Mycoplasma gallisepticum): 1.56 µg/mL (≈ 4.72 µM)
- MIC (Mycoplasma pulmonis): 3.13 µg/mL (≈ 9.47 µM)
- MIC (Mycoplasma hyorhinis): 3.13 µg/mL (≈ 9.47 µM)
Compound: CN1CCN(C(=S)SCc2oc(CO)cc(=O)c2O)CC1 [compound 263, 5-Hydroxy-2-hydroxymethyl-4-oxo-4H-pyran-6-ylmethyl-4-methyl-1-piperazinecarbodithioate]

- MIC (Mycoplasma gallisepticum): 0.1 µg/mL (≈ 0.199 µM)
- MIC (Mycoplasma pulmonis): 0.1 µg/mL (≈ 0.199 µM)
- MIC (Mycoplasma hyorhinis): 0.1 µg/mL (≈ 0.199 µM)
Compound: CCN(CC)C(=S)SCc1c(C)cc2c(c1O)C1OCC34CCCC(C)(C)C3CCC(C)(O2)C14 (stereo not shown) [compound 266, 16-Diethylthiocarbamoylthiomethylsiccanin]

- MIC (Mycoplasma gallisepticum): 1.56 µg/mL (≈ 3.01 µM)
- MIC (Mycoplasma pulmonis): 1.56 µg/mL (≈ 3.01 µM)
- MIC (Mycoplasma hyorhinis): 1.56 µg/mL (≈ 3.01 µM)
Compound: Cc1cc2c(c(O)c1CSC(=S)N1CCOCC1)C1OCC34CCCC(C)(C)C3CCC(C)(O2)C14 (stereo not shown) [compound 271, 16-(4-Morpholinethiocarbonylthiomethyl)siccanin]

- MIC (Mycoplasma gallisepticum): 0.39 µg/mL (≈ 0.735 µM)
- MIC (Mycoplasma pulmonis): 0.39 µg/mL (≈ 0.735 µM)
- MIC (Mycoplasma hyorhinis): 0.39 µg/mL (≈ 0.735 µM)
Compound: Cc1cc2c(c(O)c1CSC(=S)N1CCN(C)CC1)C1OCC34CCCC(C)(C)C3CCC(C)(O2)C14 (stereo not shown) [compound 272, 16-(4-Methyl-1-piperazinethiocarbonylthiomethyl)-siccanin]

Further lines, the compound ahead of its results:

Compound: O=C1CCCCC1CSC(=S)N1CCOCC1 (stereo not shown) [Compound No. 12, 2-Oxocyclohexylmethyl 4-morpholinecarbodithioate]
- MIC (Mycoplasma gallisepticum): 0.05 µg/mL (≈ 0.183 µM)
- MIC (Mycoplasma pulmonis): 0.2 µg/mL (≈ 0.731 µM)
- MIC (Mycoplasma hyorhinis): 0.39 µg/mL (≈ 1.43 µM)
- Attack rate arthritis ([1]; 0.005% in feed): 6/10
- Attack rate pneumonia ([1]; 0.005% in feed): 0/10
- Recovery of mycoplasma joint ([1]; 0.005% in feed): 6/10
- Recovery of mycoplasma lung ([1]; 0.005% in feed): 0/10
- Attack rate arthritis ([1]; 0.01% in feed): 4/10
- Attack rate pneumonia ([1]; 0.01% in feed): 0/10
- Recovery of mycoplasma joint ([1]; 0.01% in feed): 4/10
- Recovery of mycoplasma lung ([1]; 0.01% in feed): 0/10
- Attack rate arthritis ([1]; 0.02% in feed): 1/10
- Attack rate pneumonia ([1]; 0.02% in feed): 0/10
- Recovery of mycoplasma joint ([1]; 0.02% in feed): 1/10
- Recovery of mycoplasma lung ([1]; 0.02% in feed): 0/10
- Attack rate arthritis ([1]; 0.04% in feed): 0/10
- Attack rate pneumonia ([1]; 0.04% in feed): 0/10
- Recovery of mycoplasma joint ([1]; 0.04% in feed): 0/10
- Recovery of mycoplasma lung ([1]; 0.04% in feed): 0/10

Compound: CCN(CC)C(=S)SCCC(=O)c1ccccc1 [compound 24, 2-Benzoylethyl diethyldithiocarbamate]
- MIC (Mycoplasma gallisepticum): 0.05 µg/mL (≈ 0.178 µM)
- MIC (Mycoplasma pulmonis): 0.2 µg/mL (≈ 0.711 µM)
- MIC (Mycoplasma hyorhinis): 0.39 µg/mL (≈ 1.39 µM)
- Attack rate arthritis ([1]; 0.005% in feed): 4/10
- Attack rate pneumonia ([1]; 0.005% in feed): 0/10
- Recovery of mycoplasma joint ([1]; 0.005% in feed): 4/10
- Recovery of mycoplasma lung ([1]; 0.005% in feed): 0/10
- Attack rate arthritis ([1]; 0.01% in feed): 3/10
- Attack rate pneumonia ([1]; 0.01% in feed): 0/10
- Recovery of mycoplasma joint ([1]; 0.01% in feed): 3/10
- Recovery of mycoplasma lung ([1]; 0.01% in feed): 0/10
- Attack rate arthritis ([1]; 0.02% in feed): 2/10
- Attack rate pneumonia ([1]; 0.02% in feed): 0/10
- Recovery of mycoplasma joint ([1]; 0.02% in feed): 2/10
- Recovery of mycoplasma lung ([1]; 0.02% in feed): 0/10
- Attack rate arthritis ([1]; 0.04% in feed): 0/10
- Attack rate pneumonia ([1]; 0.04% in feed): 0/10
- Recovery of mycoplasma joint ([1]; 0.04% in feed): 0/10
- Recovery of mycoplasma lung ([1]; 0.04% in feed): 0/10

Compound: O=c1cc(CO)oc(CSC(=S)N2CCCC2)c1O [compound 258, 5-Hydroxy-2-hydroxymethyl-4-oxo-4H-pyran-6-ylmethyl-1-pyrrolidinecarbodithioate]
- MIC (Mycoplasma gallisepticum): 0.78 µg/mL (≈ 2.59 µM)
- MIC (Mycoplasma pulmonis): 0.78 µg/mL (≈ 2.59 µM)
- MIC (Mycoplasma hyorhinis): 0.39 µg/mL (≈ 1.29 µM)

Compound: O=c1cc(CO)oc(CSC(=S)N2CCCCC2)c1O [compound 261, 5-Hydroxy-2-hydroxymethyl-4-oxo-4H-pyran-6-ylmethyl-1-piperidinecarbodithioate]
- MIC (Mycoplasma gallisepticum): 3.13 µg/mL (≈ 9.92 µM)
- MIC (Mycoplasma pulmonis): 3.13 µg/mL (≈ 9.92 µM)
- MIC (Mycoplasma hyorhinis): 3.13 µg/mL (≈ 9.92 µM)

Compound: Cc1cc2c(c(O)c1CSC(=S)N(C)C)C1OCC34CCCC(C)(C)C3CCC(C)(O2)C14 (stereo not shown) [compound 265, 16-Dimethylthiocarbamoylthiomethylsiccanin]
- MIC (Mycoplasma gallisepticum): 0.39 µg/mL (≈ 0.82 µM)
- MIC (Mycoplasma pulmonis): 0.39 µg/mL (≈ 0.82 µM)
- MIC (Mycoplasma hyorhinis): 0.39 µg/mL (≈ 0.82 µM)

Compound: Cc1cc2c(c(O)c1CSC(=S)N1CCN(C)CC1)C1OCC34CCCC(C)(C)C3CCC(C)(O2)C14 (stereo not shown) [compound 273, 16-(4-Methyl-1-piperazinethiocarbonylthiomethyl)siccanin hydrochloride]
- Minimum Inhibitory Concentration, Mycoplasma gallisepticum (Mycoplasma gallisepticum; hydrochloride): 0.78 µg/mL
- Minimum Inhibitory Concentration, Mycoplasma pulmonis (Mycoplasma pulmonis; hydrochloride): 0.78 µg/mL
- Minimum Inhibitory Concentration, Mycoplasma hyorhinis (Mycoplasma hyorhinis; hydrochloride): 0.78 µg/mL
